Data published in patent US7074829B2, “Antiestrogens, process for their production and their pharmaceutical use” (Schering AG, priority 1998, dated 2006).

Tested on: uterus
Test: Uterus growth test in infant rats (antiestrogenic action)
Assay type: in vivo, rat
Details: inhibition compared to the estradiol benzoate (EB) control

## C[C@]12C[C@H](c3ccc(OCCCCC[S+]([O-])CCCC(F)(F)C(F)(F)F)cc3)[C@H](c3ccc(O)cc3)C[C@@H]1CC[C@@H]2O (stereo partly drawn) [Example 3, (1S,3S,4R,6S,9S)-9-Hydroxy-4-(4-hydroxyphenyl)-1-methyl-3-[4-(5-(4,4,5,5,5-pentafluoro-pentylsulfinyl)pentyloxy)phenyl]-bicyclo[4.3.0]nonane]
  Antiuterotrophic Action at 0.3 mg s.c. [% Inhibition]: 37 % Inhibition

## CC(=O)O[C@H]1CC[C@H]2C[C@@H](c3ccc(O)cc3)[C@@H](c3ccc(OCCCCC[S+]([O-])CCCC(F)(F)C(F)(F)F)cc3)C[C@@]21C (some centres unmarked) [Example 5]
  Antiuterotrophic Action at 0.3 mg s.c. [% Inhibition]: 55 % Inhibition
